Assay results taken from PubChem BioAssay (NCI).
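96-well plates; 48 h exposure; 5 concentrations. Endpoints by linear interpolation between flanking doses. Not reached: highest tested concentration assigned. GI50 = concentration required for 50% inhibition of growth. TGI: concentration producing complete growth inhibition.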

Legend:
Assay in all cases: DTP human tumour cell line panel, 48 h
[1] = system: 786-0 renal
[2] = system: A498 renal
[3] = system: A549 NSCLC
[4] = system: ACHN renal
[5] = system: BT-549 breast
[6] = system: CAKI-1 renal
[7] = system: CCRF-CEM leukemia
[8] = system: COLO 205 colon
[9] = system: DU-145 prostate
[10] = system: EKVX NSCLC
[11] = system: HCC-2998 colon
[12] = system: HCT-116 colon
[13] = system: HCT-15 colon
[14] = system: HL-60(TB) leukemia
[15] = system: HOP-62 NSCLC
[16] = system: HOP-92 NSCLC
[17] = system: HS 578T breast
[18] = system: HT29 colon
[19] = system: IGROV1 ovarian
[20] = system: K-562 leukemia
[21] = system: KM12 colon
[22] = system: LOX IMVI melanoma
[23] = system: M14 melanoma
[24] = system: MALME-3M melanoma
[25] = system: MCF7 breast
[26] = system: MDA-MB-231 breast
[27] = system: MDA-MB-435
[28] = system: MOLT-4 leukemia
[29] = system: NCI-H226 lung
[30] = system: NCI-H23 lung
[31] = system: NCI-H460 lung
[32] = system: NCI-H522 lung
[33] = system: NCI/ADR-RES ovarian
[34] = system: OVCAR-3 ovarian
[35] = system: OVCAR-4 ovarian
[36] = system: OVCAR-5 ovarian
[37] = system: OVCAR-8 ovarian
[38] = system: PC-3 prostate
[39] = system: RPMI-8226 leukemia
[40] = system: RXF 393 renal
[41] = system: SF-268 CNS
[42] = system: SF-295 CNS
[43] = system: SF-539 CNS
[44] = system: SK-MEL-2 melanoma
[45] = system: SK-MEL-28 melanoma
[46] = system: SK-MEL-5 melanoma
[47] = system: SK-OV-3 ovarian
[48] = system: SN12C renal
[49] = system: SNB-19 CNS
[50] = system: SNB-75 CNS
[51] = system: SR leukemia
[52] = system: SW-620 colon
[53] = system: T-47D breast
[54] = system: TK-10 renal
[55] = system: U251 CNS
[56] = system: UACC-257 melanoma
[57] = system: UACC-62 melanoma
[58] = system: UO-31 renal

CCc1c2c(nc3ccc(OC(=O)OCc4ccc(B5OC(C)(C)C(C)(C)O5)cc4)cc13)-c1cc3c(c(=O)n1C2)COC(=O)[C@]3(O)CC
GI50 [1]: < 0.01 µM | TGI [1]: 289 nM | GI50 [2]: 0.011 µM | TGI [2]: 0.0725 µM | GI50 [3]: 0.0556 µM | TGI [3]: 5.45 µM | GI50 [4]: < 0.01 µM | TGI [4]: 432 nM | GI50 [5]: < 29.1 nM | TGI [5]: 1.51 µM | GI50 [6]: < 0.01 µM | TGI [6]: 0.315 µM | GI50 [7]: < 10 nM | TGI [7]: > 100 µM | GI50 [8]: 0.0804 µM | TGI [8]: 24.5 µM | GI50 [9]: < 0.01 µM | TGI [9]: > 53.3 µM | GI50 [10]: 345 nM | TGI [10]: > 55.2 µM | GI50 [11]: 0.0661 µM | TGI [11]: 3.86 µM | GI50 [12]: < 0.0111 µM | TGI [12]: > 100 µM | GI50 [13]: 127 nM | TGI [13]: > 100 µM | GI50 [14]: 12.1 nM | TGI [14]: 22.3 µM | GI50 [15]: < 0.01 µM | TGI [15]: 3.27 µM | GI50 [16]: 26.9 nM | TGI [16]: 14.4 µM | GI50 [17]: 547 nM | TGI [17]: 19.8 µM | GI50 [18]: 0.0436 µM | TGI [18]: > 100 µM | GI50 [19]: 100 nM | TGI [19]: 3.48 µM | GI50 [20]: 0.0368 µM | TGI [20]: > 100 µM | GI50 [21]: 73 nM | TGI [21]: 16.1 µM | GI50 [22]: < 10 nM | TGI [22]: 196 nM | GI50 [23]: < 0.01 µM | TGI [23]: 920 nM | GI50 [24]: 0.0279 µM | TGI [24]: 637 nM | GI50 [25]: < 10 nM | TGI [25]: > 100 µM | GI50 [26]: 0.892 µM | TGI [26]: 43.7 µM | GI50 [27]: 0.0523 µM | TGI [27]: 1530 nM | GI50 [28]: < 10 nM | TGI [28]: > 100 µM | GI50 [29]: 0.011 µM | TGI [29]: 0.157 µM | GI50 [30]: < 0.0107 µM | TGI [30]: 0.437 µM | GI50 [31]: < 0.01 µM | TGI [31]: 182 nM | GI50 [32]: 19.6 nM | TGI [32]: 14.2 µM | GI50 [33]: 27.3 nM | TGI [33]: > 100 µM | GI50 [34]: 71.6 nM | TGI [34]: 1.46 µM | GI50 [35]: 210 nM | TGI [35]: > 30.8 µM | GI50 [36]: 0.114 µM | TGI [36]: 6.23 µM | GI50 [37]: < 11.1 nM | TGI [37]: > 71.4 µM | GI50 [38]: 51.4 nM | TGI [38]: > 100 µM | GI50 [39]: 224 nM | GI50 [40]: 13.6 nM | TGI [40]: 0.134 µM | GI50 [41]: < 10 nM | TGI [41]: 1.69 µM | GI50 [42]: < 10 nM | TGI [42]: 1.48 µM | GI50 [43]: < 10 nM | TGI [43]: 28.6 nM | GI50 [44]: 0.326 µM | TGI [44]: 8.57 µM | GI50 [45]: 0.262 µM | TGI [45]: 7.32 µM | GI50 [46]: 21.7 nM | TGI [46]: 0.118 µM | GI50 [47]: 0.0151 µM | TGI [47]: > 100 µM | GI50 [48]: < 0.01 µM | TGI [48]: > 54.7 µM | GI50 [49]: < 10 nM | TGI [49]: > 100 µM | GI50 [50]: < 11.7 nM | TGI [50]: 0.184 µM | GI50 [51]: < 0.01 µM | TGI [51]: > 100 µM | GI50 [52]: < 0.0127 µM | GI50 [53]: < 10 nM | TGI [53]: > 100 µM | GI50 [54]: 0.88 µM | TGI [54]: > 100 µM | GI50 [55]: < 10 nM | TGI [55]: > 34.3 µM | GI50 [56]: 116 nM | TGI [56]: 3.22 µM | GI50 [57]: < 0.01 µM | TGI [57]: 104 nM | GI50 [58]: 18.9 nM | TGI [58]: 339 nM

CCCCCCCCCCCCSC1=CC(=O)C=CC1=O
GI50 [1]: 9.94 µM | TGI [1]: > 33500 nM | GI50 [2]: 7.96 µM | TGI [2]: 24.3 µM | GI50 [3]: 9.46 µM | TGI [3]: > 50 µM | GI50 [4]: 9.13 µM | TGI [4]: > 42400 nM | GI50 [5]: 1340 nM | TGI [5]: 4.57 µM | GI50 [6]: 3.26 µM | TGI [6]: 24.2 µM | GI50 [7]: 143 nM | TGI [7]: 4.17 µM | GI50 [8]: 20.9 µM | TGI [8]: > 36.2 µM | GI50 [9]: 15.1 µM | TGI [9]: > 50 µM | GI50 [11]: 15.2 µM | TGI [11]: > 50 µM | GI50 [12]: 6.31 µM | TGI [12]: > 43.3 µM | GI50 [13]: 1920 nM | TGI [13]: > 32.4 µM | GI50 [14]: 353 nM | TGI [14]: 2.43 µM | GI50 [15]: 9.23 µM | TGI [15]: > 35 µM | GI50 [16]: 2560 nM | TGI [16]: 12.6 µM | GI50 [17]: 1960 nM | TGI [17]: 21.8 µM | GI50 [18]: 27.1 µM | TGI [18]: > 50 µM | GI50 [19]: 1060 nM | TGI [19]: 3.22 µM | GI50 [20]: 6.44 µM | TGI [20]: > 36.9 µM | GI50 [21]: 1920 nM | TGI [21]: 8.37 µM | GI50 [22]: 1250 nM | TGI [22]: 4300 nM | GI50 [23]: 11.7 µM | TGI [23]: > 37100 nM | GI50 [24]: 13.1 µM | TGI [24]: > 50000 nM | GI50 [25]: 2220 nM | TGI [25]: > 50 µM | GI50 [26]: 5.36 µM | TGI [26]: 17.1 µM | GI50 [27]: 15.6 µM | TGI [27]: > 50000 nM | GI50 [28]: 218 nM | TGI [28]: 8.97 µM | GI50 [29]: 6.58 µM | TGI [29]: 19 µM | GI50 [30]: 5.69 µM | TGI [30]: 21.6 µM | GI50 [31]: 13.9 µM | TGI [31]: > 50000 nM | GI50 [32]: 191 nM | TGI [32]: 0.763 µM | GI50 [33]: 1650 nM | TGI [33]: > 20.6 µM | GI50 [34]: 1980 nM | TGI [34]: 7.91 µM | GI50 [35]: 2170 nM | TGI [35]: 9 µM | GI50 [36]: 11.8 µM | TGI [36]: > 42 µM | GI50 [37]: 1790 nM | TGI [37]: 32.1 µM | GI50 [38]: 672 nM | TGI [38]: 4.21 µM | GI50 [39]: 804 nM | TGI [39]: 3.46 µM | GI50 [40]: 2860 nM | TGI [40]: 19.3 µM | GI50 [41]: 2240 nM | TGI [41]: 10.4 µM | GI50 [42]: 1440 nM | TGI [42]: 4.75 µM | GI50 [43]: 1230 nM | TGI [43]: 3500 nM | GI50 [44]: 7.5 µM | TGI [44]: 19.4 µM | GI50 [45]: 13.6 µM | TGI [45]: > 39.9 µM | GI50 [46]: 5540 nM | TGI [46]: 14.3 µM | GI50 [47]: 12.2 µM | TGI [47]: > 33.4 µM | GI50 [48]: 3.24 µM | TGI [48]: 24.7 µM | GI50 [49]: 1690 nM | TGI [49]: > 28.6 µM | GI50 [50]: 1140 nM | TGI [50]: 6.38 µM | GI50 [51]: 3.58 µM | TGI [51]: 29.1 µM | GI50 [52]: 17.9 µM | TGI [52]: > 50 µM | GI50 [53]: 893 nM | TGI [53]: 3.58 µM | GI50 [54]: 16.3 µM | TGI [54]: 37.4 µM | GI50 [55]: 311 nM | TGI [55]: 4.57 µM | GI50 [56]: 4010 nM | TGI [56]: 15.9 µM | GI50 [57]: 7.59 µM | TGI [57]: > 36900 nM | GI50 [58]: 578 nM | TGI [58]: 2540 nM
